From patent US20080051418A1, “Arylalkanoic Acid Derivative” (priority 2004, published 2008) come the findings set out here.

Where two headings read alike, the source gives them in different places.

Data set [1] concerns KKA^y mice. Put plainly: Blood glucose and blood lipid (triglyceride) lowering action in mice. It is filed as in vivo. Conditions: Mus musculus, po, 96 h, 0.005% in powder diet, 4 days, non-administration group = 100%. From the text:
The test compound was mixed with a powder diet (CE-2, CLEA JAPAN, INC.) at a proportion of 0.005% (0.01% for the compound of Example 105) and freely given to KKA^y mice (9 to 12-week-old, 5 mice per group) which are obesity-insulin independent diabetes mellitus (type-2 diabetes) models, for 4 days. During this period, water was freely given. The blood was drawn from the orbital venous plexus. Glucose and triglyceride in the plasma separated from the blood were quantitated using L Type Wako Glu2 (Wako Pure Chemical Industries, Ltd.) and L Type Wako TG•H (Wako Pure Chemical Industries, Ltd.), respectively, according to an enzyme method.

Data set [2] has as its target T1, PPARγ-RXRα heterodimer (Homo sapiens, UniProt P37231).
T1 construct: expressed in transfected cells; host or cells: CHO-K1
T1 sequence (P37231 1-505): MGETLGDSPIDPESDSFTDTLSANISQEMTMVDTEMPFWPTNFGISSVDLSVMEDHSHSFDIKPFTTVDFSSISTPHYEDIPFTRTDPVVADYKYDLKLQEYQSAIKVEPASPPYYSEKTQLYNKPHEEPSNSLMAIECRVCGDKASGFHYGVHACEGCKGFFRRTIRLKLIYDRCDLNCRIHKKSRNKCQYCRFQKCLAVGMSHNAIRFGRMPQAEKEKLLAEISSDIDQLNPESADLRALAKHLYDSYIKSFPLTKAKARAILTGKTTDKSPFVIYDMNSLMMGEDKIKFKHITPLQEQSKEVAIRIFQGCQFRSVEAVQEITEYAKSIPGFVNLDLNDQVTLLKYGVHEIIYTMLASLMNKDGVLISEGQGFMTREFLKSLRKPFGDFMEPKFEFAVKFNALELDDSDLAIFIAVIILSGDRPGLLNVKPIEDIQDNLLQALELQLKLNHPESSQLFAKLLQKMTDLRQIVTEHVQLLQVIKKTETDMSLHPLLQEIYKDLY
T1 sequence (P19793 1-462 partner): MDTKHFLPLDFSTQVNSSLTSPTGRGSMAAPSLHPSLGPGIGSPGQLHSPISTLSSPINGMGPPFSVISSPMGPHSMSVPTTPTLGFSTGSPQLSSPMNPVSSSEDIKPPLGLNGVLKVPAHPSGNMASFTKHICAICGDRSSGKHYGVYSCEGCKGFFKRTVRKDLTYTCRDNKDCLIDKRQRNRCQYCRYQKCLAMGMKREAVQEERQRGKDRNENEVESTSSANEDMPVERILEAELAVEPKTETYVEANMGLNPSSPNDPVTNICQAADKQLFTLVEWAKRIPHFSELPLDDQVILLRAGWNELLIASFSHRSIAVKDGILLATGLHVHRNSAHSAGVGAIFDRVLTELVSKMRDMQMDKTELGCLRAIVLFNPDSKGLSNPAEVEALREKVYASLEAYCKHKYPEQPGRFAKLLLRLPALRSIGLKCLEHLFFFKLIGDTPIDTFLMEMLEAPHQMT
The data set is described as follows: PPARγ-RXRα heterodimer ligand activity (luciferase reporter). Format: cell-based. Conditions: PPARγ:RXRα:4ERPP/CHO-K1 cells, 18-24 hr, concentration showing 50% of the maximum induction rate. The essentials: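 CHO-K1 cells carrying PPARγ, RXRα and a 4ERPP luciferase reporter, exposed to compound 18–24 h at 37 °C in Ham F12 with 0.1% fatty acid-free BSA. Luciferase induction expressed relative to untreated cells (= 1). EC50 is concentration giving 50% of maximal induction.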

The target of data set [3] is T2, PPARδ-RXRα heterodimer (Homo sapiens, UniProt Q03181).
T2 construct: expressed in transfected cells
T2 sequence (Q03181 1-441): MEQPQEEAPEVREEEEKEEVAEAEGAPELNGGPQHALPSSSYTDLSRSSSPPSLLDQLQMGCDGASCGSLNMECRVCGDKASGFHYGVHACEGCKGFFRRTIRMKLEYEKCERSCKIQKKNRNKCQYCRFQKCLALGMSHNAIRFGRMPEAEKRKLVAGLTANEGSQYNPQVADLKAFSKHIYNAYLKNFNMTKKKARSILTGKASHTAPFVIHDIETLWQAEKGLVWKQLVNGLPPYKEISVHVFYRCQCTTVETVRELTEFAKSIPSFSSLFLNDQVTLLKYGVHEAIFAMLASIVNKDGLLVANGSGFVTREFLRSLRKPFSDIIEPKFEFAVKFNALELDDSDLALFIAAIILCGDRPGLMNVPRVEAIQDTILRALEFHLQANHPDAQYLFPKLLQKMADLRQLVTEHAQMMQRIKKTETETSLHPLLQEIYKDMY
T2 sequence (P19793 1-462 partner): T1 sequence (P19793 1-462 partner)
Put plainly: PPARδ-RXRα heterodimer ligand activity (luciferase reporter). Format: cell-based. Conditions: transformant of Reference Example 9a of WO03/099793, 36-48 hr, concentration showing 50% of the maximum induction rate. On the procedure: The transformant described in Reference Example 9a of WO03/099793 was suspended in a DMEM medium [manufactured by Life technologies, Inc., US] containing 0.1% fatty acid-free bovine serum albumin (BSA) (manufactured by Wako Pure Chemical Industries, Ltd.), and inoculated to each well of a 96 well white plate [manufactured by Corning Coster Corporation, US] by 80 μl to 1×10^4 cells/well. Then, the test compound (20 μl) was added, and cultured under the conditions of 37° C., 5% CO2 for 36-48 hr. The medium was removed from the 96 well white plate, 40 μl of PicaGene LT 7.5 (manufactured by Wako Pure Chemical Industries, Ltd.) diluted 2-fold with HBSS (HANKS' BALANCED SALT SOLUTION) [manufactured by BIO WHITTAKER, US] was added and, after stirring, the luciferase activity was determined using the 1420 ARVO Multilabel Counter [manufactured by PerkinElmer, US].
The induction rate was calculated from the luciferase activity of each test compound based on the luciferase activity of the test compound non-administration group as 1. The test compound concentration and the induction rate were analyzed by PRISM [manufactured by GraphPad Software, Inc., US] to calculate EC50 value (compound concentration showing 50% of the maximum value of induction rate) of the test compound.

The mark [4] stands for this setting: lowering rate of plasma glucose, read-out: hypoglycemic action (%).
The mark [5] stands for this setting: lowering rate of plasma triglyceride, read-out: hypolipidemic action (%).

Regarding `COc1cccc(CC(=O)O)c1OCCCc1cc(OC(C)C)nn1Cc1ccc(F)cc1Cl` [Example 64, (2-{3-[1-(2-chloro-4-fluorobenzyl)-3-isopropoxy-1H-pyrazol-5-yl]propoxy}-3-methoxyphenyl)acetic acid], the values for the inhibition in vivo at 0.005 % in data set [1] (setting [4]) and in data set [1] (setting [5]) were 59% and 71%, respectively. Besides, the EC50 is 11 nM in data set [2] and 93 nM in data set [3].

As to `CCn1cc(CC(=O)O)c(OCCCc2ccc(OC(C)C)cc2Oc2ncc(C(F)(F)F)cc2Cl)n1` [Example 117, {3-[3-(2-{[3-chloro-5-(trifluoromethyl)pyridin-2-yl]oxy}-4-isopropoxyphenyl)propoxy]-1-ethyl-1H-pyrazol-4-yl}acetic acid], the inhibition in vivo at 0.005 % in data set [1] (setting [4]) is 49%; in data set [1] (setting [5]), 18%. Besides, the EC50 in data set [2] was 0.78 nM; in data set [3], 4.3 nM.

As to `COCCOc1ccc(CCCOc2nn(C)cc2CC(=O)O)c(Oc2ncc(C(F)(F)F)cc2Cl)c1` [Example 122, (3-{3-[2-{[3-chloro-5-(trifluoromethyl)pyridin-2-yl]oxy}-4-(2-methoxyethoxy)phenyl]propoxy}-1-methyl-1H-pyrazol-4-yl)acetic acid], the melting point was in the range of 127 to 129 °C. In data set [1] (setting [4]), the inhibition in vivo at 0.005 % amounted to 72%. Further, the inhibition in vivo at 0.005 % in data set [1] (setting [5]) was 33%. This molecule registered a half-maximal effective concentration (EC50) in data set [2] of 4.1 nM. The EC50 in data set [3] was found to be 76 nM.

Take `CC(C)Oc1ccc(CCCOc2cc(CCC(=O)O)n(-c3ccccc3)n2)c(Oc2ncc(C(F)(F)F)cc2Cl)c1` [Example 136, 3-{3-[3-(2-{[3-chloro-5-(trifluoromethyl)pyridin-2-yl]oxy}-4-isopropoxyphenyl)propoxy]-1-phenyl-1H-pyrazol-5-yl}propanoic acid]: the melting point was 86 to 88 °C. Further, the inhibition in vivo at 0.005 % in data set [1] (setting [4]) was 57%. Besides, the inhibition in vivo at 0.005 % in data set [1] (setting [5]) is 38%. For the same molecule, a half-maximal effect in data set [2] (EC50) was put at 0.42 nM. This molecule displayed an EC50 in data set [3] of 2.5 nM.

In turn, `CCn1nc(OCCCc2ccc(OC(C)C)cc2Oc2ncc(C(F)(F)F)cc2Cl)cc1CCC(=O)O` [Example 141, 3-{3-[3-(2-{[3-chloro-5-(trifluoromethyl)pyridin-2-yl]oxy}-4-isopropoxyphenyl)propoxy]-1-ethyl-1H-pyrazol-5-yl}propanoic acid] had a melting point of 73 to 74 °C. For the same molecule, the inhibition in vivo at 0.005 % in data set [1] (setting [4]) was determined as 44%. Further, the inhibition in vivo at 0.005 % in data set [1] (setting [5]) was determined as 41%. For the same molecule, a half-maximal response in data set [2] (EC50) required 1.6 nM. In data set [3], this molecule had a concentration giving a half-maximal response (EC50) of 6.9 nM.

`CC(C)Cn1nc(OCCCc2ccc(OC(C)C)cc2Oc2ncc(C(F)(F)F)cc2Cl)cc1CCC(=O)O` [Example 143, 3-{3-[3-(2-{[3-chloro-5-(trifluoromethyl)pyridin-2-yl]oxy}-4-isopropoxyphenyl)propoxy]-1-isobutyl-1H-pyrazol-5-yl}propanoic acid] registered a melting point of 71 to 73 °C. In data set [2], a half-maximal effect (EC50) was put at 1.4 nM. In data set [3], the EC50 came to 11 nM.

Consider `COCCOc1ccc(CCCOc2cc(CCC(=O)O)n(-c3ccccc3)n2)c(Oc2ncc(C(F)(F)F)cc2Cl)c1` [Example 147, 3-(3-{3-[2-{[3-chloro-5-(trifluoromethyl)pyridin-2-yl]oxy}-4-(2-methoxyethoxy)phenyl]propoxy}-1-phenyl-1H-pyrazol-5-yl)propanoic acid], for which the melting point lay in the range of 128 to 129 °C. For the same molecule, in data set [2], the EC50 stood at 0.35 nM. Besides, in data set [3], the EC50 amounted to 4.4 nM.

For `CC(C)Oc1ccc(CCCCOc2cc(CCC(=O)O)n(-c3ccccc3)n2)c(Oc2ncc(C(F)(F)F)cc2Cl)c1` [Example 156, 3-{3-[4-(2-{[3-chloro-5-(trifluoromethyl)pyridin-2-yl]oxy}-4-isopropoxyphenyl)butoxy]-1-phenyl-1H-pyrazol-5-yl}propanoic acid], the melting point lay in the range of 75 to 77 °C. The molecule also came in with an EC50 in data set [2] of 0.99 nM. Moreover, in data set [3], a half-maximal response (EC50) required 3.4 nM.

In turn, `CCn1nc(OCCCCc2ccc(OC(C)C)cc2Oc2ncc(C(F)(F)F)cc2Cl)cc1CCC(=O)O` [Example 158, 3-{3-[4-(2-{[3-chloro-5-(trifluoromethyl)pyridin-2-yl]oxy}-4-isopropoxyphenyl)butoxy]-1-ethyl-1H-pyrazol-5-yl}propanoic acid] returned a melting point of 129 to 130 °C. In data set [2], this molecule gave an EC50 of 7.1 nM. Further, the EC50 in data set [3] is 17 nM.

`CC(C)Oc1ccc(CCCOc2cc(CCC(=O)O)n(-c3ccccc3)n2)c(OCc2ccc(Cl)cc2Cl)c1` [Example 160, 3-[3-(3-{2-[(2,4-dichlorobenzyl)oxy]-4-isopropoxyphenyl}propoxy) -1-phenyl-1H-pyrazol-5-yl]propanoic acid] showed a melting point of 139 to 141 °C. The molecule also gave a concentration giving a half-maximal response (EC50) in data set [2] of 5.3 nM. Further, it took 6 nM to reach a half-maximal effect in data set [3] (EC50).

The molecule `CC(C)Oc1ccc(CCCOc2cc(CCC(=O)O)n(-c3ccccc3)n2)c(OCc2ccc(C(F)(F)F)cc2)c1` [Example 166, 3-{3-[3-(4-isopropoxy-2-{[4-(trifluoromethyl)benzyl]oxy}phenyl)propoxy]-1-phenyl-1H-pyrazol-5-yl}propanoic acid] yielded a melting point of 118 to 119 °C. For the same molecule, in data set [2], the EC50 stood at 24 nM. In data set [3], a half-maximal effect (EC50) was put at 2.2 nM.

`CC(C)Oc1cc(CCCOc2cc(CCC(=O)O)n(-c3ccccc3)n2)cc(COc2ccc(Cl)cc2Cl)c1` [Example 196, 3-[3-(3-{3-[(2,4-dichlorophenoxy)methyl]-5-isopropoxyphenyl}propoxy)-1-phenyl-1H-pyrazol-5-yl]propanoic acid] returned a melting point of 104 to 106 °C. Besides, a half-maximal response in data set [2] (EC50) required 16 nM. The molecule also came in with an EC50 in data set [3] of 11 nM.
